Structures are written as SMILES.

The conditions of data set [1]: cited from earlier work.
Data set [2] relates to beta-galactosidase (EC 3.2.1.23; b-gal). Description: Enzymatic assay: incubation of the probe with beta-galactosidase, microplate fluorescence. Format: biochemical. The protocol:
(§1) Probe I.1 was evaluated by incubation with the target enzyme beta-galactosidase (EC 3.2.1.23; <<b-gal>>; commercial) in in vitro medium and in multi-well micro-plates designed for fluorescence readers.
(§2) The main assays were conducted at 25° C. in solutions buffered at pH 7.4, physiological pH). Assays at 37° C. would have required protection of the wells against early evaporation e.g. by covering with a film which would have caused a strong reduction in the sensitivity of fluorescence measurement. A temperature of 25° C. was therefore preferred.
In the invention when implementing the enzymatic assays, once the minimum concentration allowing triggering of crystal nucleation is reached, there is depositing of a solid fluorophore in a well of a multi-well plate.
(§3) The following enzymatic assays of probe I.1 were performed in a 96-well microplate in a microplate spectrofluorimeter of Mithras LB 940 type by BERTHOLD TECHNOLOGIES. The excitation wavelength was set at 355 and the detection wavelength at 510 nm, conforming to the spectral properties of dichloro-HPQ.

The test system of data set [3] is cells expressing b-gal constitutively. Description: Fluorescence microscopy of cells incubated with the probe. The data set is classed as cell-based. The conditions noted are these: probe 25 μM, 48 hours, serum-free medium. As to the method: FIG. 4 is a microscope image of the fluorescence of cells expressing b-gal constitutively and which were incubated by probe I.1 at 25 μM for 48 hours in a serum-free medium.

Data set [4] has as its system cells of C17.2 type which express the target enzyme b-gal constitutively. In words: Incubation of the probe with C17.2 cells, microplate fluorescence. The data set is classed as cell-based. As to conditions: probe 25 μM, culture plate without serum. The protocol:
The experiment was conducted in a cell culture plate without serum, and the fluorescence signal was measured by the microplate spectrofluorimeter of Mithras LB 940 type by BERTHOLD TECHNOLOGIES.

Data set [5] can be described thus: Negative control of the enzymatic assay: probe in buffered aqueous medium without enzyme (background fluorescence / hydrolytic robustness). The data set is classed as physicochemical. As to conditions: probe 25 μM, no b-gal, pH 7.4, 25° C., excitation 355 / detection 510 nm. As to the method:
as §1, §2, §3

`O=c1[nH]c(-c2cc(Cl)ccc2O)nc2ccc(Cl)cc12` [dichloro-HPQ, 6-chloro-2-(5-chloro-2-hydroxyphenyl)-4(3H)-Quinazolinone]: the “solubility in aqueous/physiological media” value in data set [1] was “fully insoluble”.
Consider `O=C(Oc1ccc(Cl)cc1-c1nc2ccc(Cl)cc2c(=O)[nH]1)N1CCCCC1CO[C@@H]1O[C@H](CO)[C@H](O)[C@H](O)[C@H]1O` (stereo partly shown) [probe I.1], for which the “trend in fluorescence signal with increasing probe concentration” value in data set [2] (b-gal fixed at 20 μM, three concentrations of probe) is on record as “Strong growth of the signal”. In addition, the “dependence of the fluorescence signal on the concentration of target enzyme” value in data set [2] (probe fixed at 25 μM, three concentrations of b-gal) is on record as “independency of the signal”. Besides, the “fluorescent precipitate in cells (microscope image)” value in data set [3] was “highly fluorescent dichloro-HPQ is precipitated”. Besides, in data set [4], the “capacity to cross the cell membrane” value was “cross the cell membrane” and the “conversion by intracellular b-gal (fluorescence signal)” value was “converted by the enzyme”. The “trend in the fluorescence signal in the absence of enzyme (negative control)” value in data set [5] is given as “total absence of a fluorescence signal”.

The values above are taken from patent US9593362B2, “Fluorogenic glycosidase substrate and associated detection method” (ECOLE NORMALE SUPERIEURE DE LYON, priority 2012, dated 2017).
